In brackets after ≈: the same amount, converted by molar mass.
What was measured:
[1] = target: Protein deacetylase HDAC6 (Homo sapiens, UniProt Q9UBN7); experiment: Inhibition of HDAC6 (unknown origin) measured after 15 mins by fluorescence based assay
[2] = target: T1, Poly [ADP-ribose] polymerase 1 (Homo sapiens, UniProt P09874); experiment: Inhibition of PARP1 (unknown origin) by colorimetric assay
HCT-116 = experiment: Cytotoxicity against human HCT-116 cells assessed as cell growth inhibition; assay type: functional, cell-based
SW-620 = experiment: Cytotoxicity against human SW-620 cells assessed as cell growth inhibition measured after 48 hrs by SRB assay; assay type: functional
OVCAR-3 = experiment: Cytotoxicity against human OVCAR-3 cells assessed as cell growth inhibition measured after 48 hrs by SRB assay; assay type: functional
A498 = experiment: Cytotoxicity against human A498 cells assessed as cell growth inhibition measured after 48 hrs by SRB assay; assay type: functional
PC-3 [3] = experiment: Cytotoxicity against human PC-3 cells assessed as cell growth inhibition measured after 48 hrs by SRB assay; assay type: functional
SF-295 = experiment: Cytotoxicity against human SF-295 cells assessed as cell growth inhibition measured after 48 hrs by SRB assay; assay type: functional
MCF7 [4] = experiment: Cytotoxicity against human MCF7 cells assessed as cell growth inhibition measured after 48 hrs by SRB assay; assay type: functional
HCT-15 = experiment: Cytotoxicity against human HCT-15 cells assessed as cell growth inhibition measured after 48 hrs by SRB assay; assay type: functional
MDA-MB-468 = experiment: Cytotoxicity against human MDA-MB-468 cells assessed as cell growth inhibition measured after 48 hrs by SRB assay; assay type: functional
KM12 = experiment: Cytotoxicity against human KM12 cells assessed as cell growth inhibition measured after 48 hrs by SRB assay; assay type: functional
SK-MEL-5 = experiment: Cytotoxicity against human SK-MEL-5 cells assessed as cell growth inhibition measured after 48 hrs by SRB assay; assay type: functional
SR = experiment: Cytotoxicity against human SR cells assessed as cell growth inhibition measured after 48 hrs by SRB assay; assay type: functional
MDA-MB-435 = experiment: Cytotoxicity against human MDA-MB-435 cells assessed as cell growth inhibition measured after 48 hrs by SRB assay; assay type: functional
UACC-62 = experiment: Cytotoxicity against human UACC-62 cells assessed as cell growth inhibition measured after 48 hrs by SRB assay; assay type: functional
COLO 205 = experiment: Cytotoxicity against human COLO 205 cells assessed as cell growth inhibition; assay type: functional, cell-based
A-375 = experiment: Cytotoxicity against human A-375 cells assessed as cell growth inhibition; assay type: functional, cell-based
[5] = target: T1, Poly [ADP-ribose] polymerase 1; experiment: Inhibition of PARP1 (unknown origin) incubated for 30 mins by ELISA assay
[6] = target: Hepatocyte growth factor receptor (Homo sapiens, UniProt P08581); experiment: Inhibition of c-Met (unknown origin) incubated for 20 to 30 mins in presence of [33P]-ATP by scintillation counter analysis
Chain of Hepatocyte growth factor receptor (P08581 whole entry): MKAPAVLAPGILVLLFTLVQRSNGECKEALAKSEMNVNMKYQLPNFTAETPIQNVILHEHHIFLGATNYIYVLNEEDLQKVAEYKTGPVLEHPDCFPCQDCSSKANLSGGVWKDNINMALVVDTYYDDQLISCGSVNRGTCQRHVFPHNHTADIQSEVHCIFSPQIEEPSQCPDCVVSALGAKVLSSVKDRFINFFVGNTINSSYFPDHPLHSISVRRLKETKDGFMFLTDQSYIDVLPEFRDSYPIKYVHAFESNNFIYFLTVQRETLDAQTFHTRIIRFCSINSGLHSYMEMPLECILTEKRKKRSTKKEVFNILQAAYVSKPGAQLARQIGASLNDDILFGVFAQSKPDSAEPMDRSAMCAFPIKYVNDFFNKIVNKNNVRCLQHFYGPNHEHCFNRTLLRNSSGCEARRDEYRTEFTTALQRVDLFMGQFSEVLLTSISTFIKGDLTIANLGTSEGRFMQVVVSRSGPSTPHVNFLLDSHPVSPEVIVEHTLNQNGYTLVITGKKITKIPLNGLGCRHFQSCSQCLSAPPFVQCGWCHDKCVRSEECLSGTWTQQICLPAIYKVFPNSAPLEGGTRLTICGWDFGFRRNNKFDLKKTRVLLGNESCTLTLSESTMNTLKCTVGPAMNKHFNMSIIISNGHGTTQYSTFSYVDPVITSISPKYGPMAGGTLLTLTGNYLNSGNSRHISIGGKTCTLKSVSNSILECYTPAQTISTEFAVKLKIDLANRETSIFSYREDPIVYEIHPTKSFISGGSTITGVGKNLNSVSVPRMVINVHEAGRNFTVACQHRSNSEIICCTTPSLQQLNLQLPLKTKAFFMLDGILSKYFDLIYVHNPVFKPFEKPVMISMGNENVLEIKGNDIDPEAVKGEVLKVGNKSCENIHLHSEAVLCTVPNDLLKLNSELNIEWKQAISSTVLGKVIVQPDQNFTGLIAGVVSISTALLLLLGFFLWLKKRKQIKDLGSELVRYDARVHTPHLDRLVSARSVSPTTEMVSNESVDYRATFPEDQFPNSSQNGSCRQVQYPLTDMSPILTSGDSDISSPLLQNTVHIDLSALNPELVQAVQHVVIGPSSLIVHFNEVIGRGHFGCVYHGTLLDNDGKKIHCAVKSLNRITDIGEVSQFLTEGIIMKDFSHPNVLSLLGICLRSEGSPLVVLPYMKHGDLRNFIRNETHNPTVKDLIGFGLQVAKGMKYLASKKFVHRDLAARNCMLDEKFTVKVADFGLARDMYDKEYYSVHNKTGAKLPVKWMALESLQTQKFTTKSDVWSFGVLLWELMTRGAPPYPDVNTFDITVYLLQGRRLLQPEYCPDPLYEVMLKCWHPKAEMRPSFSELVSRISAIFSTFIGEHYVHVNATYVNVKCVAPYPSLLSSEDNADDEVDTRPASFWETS

[7] = target: Epidermal growth factor receptor (Homo sapiens, UniProt P00533); experiment: Inhibition of EGFR (unknown origin)
[8] = Cytotoxicity against human CEM cells assessed as cell growth inhibition measured after 48 to 72 hrs by hoechst and PI staining based analysis; assay type: toxicity; conditions: CCRF-CEM cells, time 48-72 hrs
MDA-MB-231 [9] = experiment: Cytotoxicity against human MDA-MB-231 cells assessed as cell growth inhibition measured after 48 to 72 hrs by hoechst and PI staining based analysis; assay type: functional; conditions: time 48-72 hrs
MDA-MB-436 = experiment: Antiproliferative activity against human MDA-MB-436 cells assessed as cell growth inhibition measured after 72 hrs by MTT assay; assay type: functional, cell-based; conditions: MDA-MB-436, 72 h
CCRF-SB = experiment: Cytotoxicity against human CCRF-SB cells assessed as cell growth inhibition measured after 48 hrs by MTT assay; assay type: functional, cell-based
MCF7 [10] = experiment: Cytotoxicity against human MCF7 cells assessed as cell growth inhibition measured after 48 hrs by MTT assay; assay type: functional, cell-based; conditions: MCF7, 48 h
NALM-6 = experiment: Cytotoxicity against human NALM-6 cells assessed as cell growth inhibition measured after 48 hrs by MTT assay; assay type: functional, cell-based; conditions: NALM-6, 48 h
[11] = target: Tyrosine-protein kinase BTK (Homo sapiens, UniProt Q06187); experiment: Inhibition of BTK (unknown origin) incubated for 30 mins in presence of ATP by fluorescence based analysis
Chain of Tyrosine-protein kinase BTK (Q06187 whole entry): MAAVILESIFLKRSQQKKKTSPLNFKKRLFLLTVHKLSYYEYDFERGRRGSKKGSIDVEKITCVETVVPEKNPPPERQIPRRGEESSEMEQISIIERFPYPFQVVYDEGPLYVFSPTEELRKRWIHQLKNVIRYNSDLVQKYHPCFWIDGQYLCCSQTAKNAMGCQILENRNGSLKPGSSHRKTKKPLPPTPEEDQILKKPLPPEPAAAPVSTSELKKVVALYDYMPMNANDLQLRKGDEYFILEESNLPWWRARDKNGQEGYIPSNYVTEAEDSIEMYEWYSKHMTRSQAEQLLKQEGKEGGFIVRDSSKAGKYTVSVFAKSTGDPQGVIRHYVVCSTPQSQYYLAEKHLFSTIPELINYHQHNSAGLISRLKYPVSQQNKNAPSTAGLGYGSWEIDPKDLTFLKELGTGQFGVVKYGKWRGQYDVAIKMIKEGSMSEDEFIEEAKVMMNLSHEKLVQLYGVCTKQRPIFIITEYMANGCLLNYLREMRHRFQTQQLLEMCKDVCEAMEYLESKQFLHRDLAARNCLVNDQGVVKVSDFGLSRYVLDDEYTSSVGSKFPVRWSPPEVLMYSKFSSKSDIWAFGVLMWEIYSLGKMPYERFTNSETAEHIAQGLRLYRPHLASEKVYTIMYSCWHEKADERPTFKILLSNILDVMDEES

TMD8 = experiment: Cytotoxicity against human TMD8 cells assessed as cell growth inhibition measured after 72 hrs by WST-1 assay; assay type: functional, cell-based; conditions: TMD8, 72 h
PC-3 [12] = experiment: Antiproliferative activity against human PC3 cells assessed as cell growth inhibition; assay type: functional
K562 = experiment: Antiproliferative activity against human K562 cells assessed as cell growth inhibition; assay type: functional
MDA-MB-231 [13] = experiment: Potency index, ratio of 5-Fu IC50 to compound IC50 for antiproliferative activity against human MDA-MB-231 cells assessed as cell growth inhibition measured after 48 hrs by WST-1 assay; assay type: functional
MDA-MB-231 [14] = experiment: Antiproliferative activity against human MDA-MB-231 cells assessed as cell growth inhibition measured after 48 hrs by WST-1 assay; assay type: functional, cell-based; conditions: MDA-MB-231, 48 h
IMR-32 = experiment: Cytotoxicity against human IMR-32 cells assessed as cell growth inhibition; assay type: functional, cell-based
Hep 3B2 = experiment: Anticancer activity against human Hep3B cells assessed as cell growth inhibition measured upto 72 hrs by MTS assay; assay type: functional, cell-based
SH-SY5Y = experiment: Anticancer activity against human SH-SY5Y cells assessed as cell growth inhibition measured upto 72 hrs by MTS assay; assay type: functional, cell-based
MCF7 [15] = experiment: Antiproliferative activity against human MCF7 cells assessed as cell growth inhibition; assay type: functional, cell-based
A549 = experiment: Antiproliferative activity against human A549 cells assessed as cell growth inhibition; assay type: functional, cell-based
HepG2 = experiment: Antiproliferative activity against human HepG2 cells assessed as inhibition of cell growth measured after 48 hrs by MTT assay; assay type: functional, cell-based; conditions: HepG2, 48 h
MCF7 [16] = experiment: Antiproliferative activity against human MCF7 cells assessed as cell growth inhibition measured after 48 hrs by MTT assay; assay type: functional, cell-based; conditions: MCF7, 48 h
HUVEC = experiment: Antiproliferative activity against VEGF-stimulated human HUVEC cells assessed as cell growth inhibition at 10 uM incubated for 72 hrs by resazurin dye based AlamarBlue assay relative to control; assay type: functional
MDA-MB-231 [17] = experiment: Antiproliferative activity against human MDA-MB-231 cells assessed as cell growth inhibition; assay type: functional, cell-based
HaCaT = experiment: Antiproliferative activity against human HaCaT cells assessed as cell growth inhibition; assay type: functional, cell-based

T1 sequence (P09874 whole entry): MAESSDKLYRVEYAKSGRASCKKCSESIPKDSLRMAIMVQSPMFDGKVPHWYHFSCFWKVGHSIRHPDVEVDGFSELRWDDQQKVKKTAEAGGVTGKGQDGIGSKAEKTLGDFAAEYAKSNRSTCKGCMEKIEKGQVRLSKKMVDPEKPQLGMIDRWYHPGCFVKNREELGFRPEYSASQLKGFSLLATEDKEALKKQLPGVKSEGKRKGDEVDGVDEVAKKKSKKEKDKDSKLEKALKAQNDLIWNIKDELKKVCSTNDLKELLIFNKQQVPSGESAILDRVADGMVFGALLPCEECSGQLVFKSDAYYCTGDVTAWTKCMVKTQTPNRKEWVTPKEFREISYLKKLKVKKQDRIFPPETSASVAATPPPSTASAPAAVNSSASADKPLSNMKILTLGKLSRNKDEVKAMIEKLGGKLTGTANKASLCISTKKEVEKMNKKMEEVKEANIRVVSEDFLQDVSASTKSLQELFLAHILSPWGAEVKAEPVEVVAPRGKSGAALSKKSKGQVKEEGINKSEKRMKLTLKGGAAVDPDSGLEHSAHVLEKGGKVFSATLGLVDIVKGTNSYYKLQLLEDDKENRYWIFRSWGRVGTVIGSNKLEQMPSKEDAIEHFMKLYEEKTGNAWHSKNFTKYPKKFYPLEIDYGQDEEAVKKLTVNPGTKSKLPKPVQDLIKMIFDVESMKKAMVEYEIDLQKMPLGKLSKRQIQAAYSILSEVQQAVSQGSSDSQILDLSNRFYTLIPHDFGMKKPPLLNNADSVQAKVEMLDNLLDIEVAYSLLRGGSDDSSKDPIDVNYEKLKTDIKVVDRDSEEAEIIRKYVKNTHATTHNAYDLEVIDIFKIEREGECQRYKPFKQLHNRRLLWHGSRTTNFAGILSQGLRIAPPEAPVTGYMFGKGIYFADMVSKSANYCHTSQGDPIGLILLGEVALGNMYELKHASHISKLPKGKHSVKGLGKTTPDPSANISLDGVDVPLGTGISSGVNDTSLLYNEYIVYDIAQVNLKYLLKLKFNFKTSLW
Chain of Protein deacetylase HDAC6 (Q9UBN7 whole entry): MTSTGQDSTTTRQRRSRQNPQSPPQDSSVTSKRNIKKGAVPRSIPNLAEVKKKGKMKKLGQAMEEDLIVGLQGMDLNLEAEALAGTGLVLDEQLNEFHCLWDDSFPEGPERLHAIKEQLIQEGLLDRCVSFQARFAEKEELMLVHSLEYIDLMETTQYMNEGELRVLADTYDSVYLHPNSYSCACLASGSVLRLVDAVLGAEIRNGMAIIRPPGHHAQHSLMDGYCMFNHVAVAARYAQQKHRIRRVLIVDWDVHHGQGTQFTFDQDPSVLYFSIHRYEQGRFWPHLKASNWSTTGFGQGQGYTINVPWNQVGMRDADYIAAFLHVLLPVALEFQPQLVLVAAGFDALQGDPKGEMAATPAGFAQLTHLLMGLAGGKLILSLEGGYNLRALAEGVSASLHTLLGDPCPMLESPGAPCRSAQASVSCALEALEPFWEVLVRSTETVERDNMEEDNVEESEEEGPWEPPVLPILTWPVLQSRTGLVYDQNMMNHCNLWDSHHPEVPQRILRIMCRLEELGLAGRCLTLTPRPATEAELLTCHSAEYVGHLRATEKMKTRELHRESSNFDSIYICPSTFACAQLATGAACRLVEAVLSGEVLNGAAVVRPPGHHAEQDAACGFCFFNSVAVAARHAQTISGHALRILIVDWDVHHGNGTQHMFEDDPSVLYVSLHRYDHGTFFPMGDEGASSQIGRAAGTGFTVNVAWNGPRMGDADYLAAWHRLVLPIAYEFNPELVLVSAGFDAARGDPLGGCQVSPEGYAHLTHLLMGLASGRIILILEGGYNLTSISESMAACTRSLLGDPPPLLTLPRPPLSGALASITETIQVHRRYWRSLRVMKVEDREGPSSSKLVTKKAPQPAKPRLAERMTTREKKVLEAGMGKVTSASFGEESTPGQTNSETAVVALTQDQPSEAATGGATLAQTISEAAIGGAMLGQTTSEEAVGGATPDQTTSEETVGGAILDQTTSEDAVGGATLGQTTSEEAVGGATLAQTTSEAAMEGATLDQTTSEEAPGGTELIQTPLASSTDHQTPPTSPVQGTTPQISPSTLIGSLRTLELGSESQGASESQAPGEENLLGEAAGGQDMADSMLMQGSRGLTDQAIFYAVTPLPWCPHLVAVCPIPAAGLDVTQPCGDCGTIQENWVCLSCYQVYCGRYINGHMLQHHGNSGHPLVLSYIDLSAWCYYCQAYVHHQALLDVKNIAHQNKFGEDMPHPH

`O=C(/C=C/c1ccc(CCCCCCc2n[nH]c(=O)c3cc(F)ccc23)cc1)NO` showed an IC50 [1] of 57 nM and an IC50 [2] of 7 nM.
Molecule `N=C(N)NS(=O)(=O)c1ccc(Nc2ccc3nc4ccccc4c(=O)n3n2)cc1` has an IC50 (HCT-116) of 11900 nM.
In the case of `CCOC(=O)c1cc(C(=O)c2cc(OC)c(OC)c(OC)c2)n2nc(C)ccc12`, the GI50 (SW-620) is reported as < 100 nM, the GI50 (OVCAR-3) is reported as < 100 nM and the GI50 (A498) is reported as < 100 nM. For the same molecule, the GI50 (PC-3 [3]) was < 100 nM, the GI50 (SF-295) was < 100 nM and the GI50 (MCF7 [4]) was 48.1 nM. The GI50 (HCT-15) was < 100 nM, the GI50 (MDA-MB-468) was < 100 nM and the GI50 (KM12) was < 100 nM. For the same molecule, the GI50 (SK-MEL-5) was < 100 nM, the GI50 (SR) was 48.1 nM and the GI50 (MDA-MB-435) was 25.6 nM. The GI50 (UACC-62) was < 100 nM.
For `O=C(NC(Cc1c[nH]c2ccccc12)C1C(=O)N=C2C=CC=NN21)c1ccccc1` (centres undefined), the IC50 (COLO 205) was 21 nM and the IC50 (A-375) was 14 nM.
`O=C(Nc1nc(-c2ccccc2)cs1)c1ccc(Cc2n[nH]c(=O)c3cccnc23)cc1` gave an IC50 [5] of 45.5 nM.
With `O=C(O)c1ccccc1Nc1ccc2nnc(-c3ccncc3)n2n1` the IC50 [6] was 107000 nM.
With `CN(C)c1ccc(/C=N/NC(=O)Cn2nc(Cc3ccc(Cl)cc3)c3ccccc3c2=O)cc1` the IC50 [7] was 0.45 nM.
With `O=c1c(Cl)c(Cl)cnn1-c1ccc(Cl)c(C(F)(F)F)c1` the CC50 [8] was 330 nM and the CC50 (MDA-MB-231 [9]) was 2630 nM.
`O=C(/C=C/c1cccc([N+](=O)[O-])c1)N1CCN(C(=O)c2cc(Cc3n[nH]c(=O)c4ccccc34)ccc2F)CC1` gave an IC50 (MDA-MB-436) of 11600 nM.
In the case of `Clc1ccc2nnc(-c3c[nH]c4ccccc34)n2n1`, the IC50 (CCRF-SB) is reported as 1640 nM, the IC50 (MCF7 [10]) is reported as 3550 nM and the IC50 (NALM-6) is reported as 1140 nM.
In the case of `CC(C)Nc1ccc2nnc(-c3cc(-c4cnn(C5CCN(CCO)CC5)c4)cnc3N)n2n1`, the IC50 [11] is reported as 33 nM and the IC50 (TMD8) is reported as 800 nM.
`CC1(C)CC(=O)C2=C(C1)n1c(=O)c3ccccc3c(=O)n1C2` showed a GI50 (PC-3 [12]) of 5300 nM and a GI50 (K562) of 9400 nM.
With `O=C1Nc2ccc(Cl)cc2/C1=N/Nc1nnc(-c2ccc(Cl)cc2)c2ccccc12` the “Ratio IC50” value (MDA-MB-231 [13]) was 2.4 and the IC50 (MDA-MB-231 [14]) was 12000 nM.
`Cc1n[nH]c(=O)c2c1c1cc(F)ccc1n2Cc1cn(C2CCCCC2)nn1` gave an IC50 (IMR-32) of 40 nM.
For `Cc1cccc(/C=N/NC(=O)Cn2nc(N3CCN(c4ccc(Cl)cc4)CC3)ccc2=O)c1`, the IC50 (Hep 3B2) was 24300 nM and the IC50 (SH-SY5Y) was 23200 nM.
For `CC(C)[Si](C#Cc1cc(-n2cc(Cn3nc(-c4ccccc4)cc(-c4ccccc4)c3=O)nn2)cc(C#C[Si](C(C)C)(C(C)C)C(C)C)n1)(C(C)C)C(C)C`, the IC50 (MCF7 [15]) was 3.25 µg/mL and the IC50 (A549) was 5 µg/mL (≈ 6.52 µM).
For `O=c1[nH]nc(-c2nnc(S)o2)c2ccccc12`, the IC50 (HepG2) was 4500 nM and the IC50 (MCF7 [16]) was 4900 nM.
`O=C(Nc1ccc(Oc2nnc(Cl)c3ccccc23)cc1)Nc1ccc(Cl)c(C(F)(F)F)c1` gave an inhibition at 10 µM (HUVEC) of 71.6%.
In the case of `COc1ccc(-c2nc(N3N=C(c4ccc(F)cc4)CCC3=O)n(C)c(=O)c2C#N)cc1`, the IC50 (MCF7 [15]) is reported as 3430 nM, the IC50 (MDA-MB-231 [17]) is reported as 2560 nM and the IC50 (HaCaT) is reported as > 50000 nM.

— ChEMBL document CHEMBL5104091, “Pyridazine as a privileged structure: An updated review on anticancer activity of pyridazine containing bioactive molecules” (Eur J Med Chem, 2021)
